# Source: patent US20110003688A1, “Pesticidal Compound Mixtures” (Bayer CropScience AG, priority 2007, published 2011)
# Key:
# Type in all cases: in vivo
# Conditions in all cases: mortality
# [1] = system: green peach aphid (Myzus persicae); test: Myzus persicae test (sprayed infested cabbage leaves)
# Protocol: (§1) To produce a suitable preparation of active compound, 1 part by weight of active compound is mixed with the stated amount of solvent and emulsifier, and the concentrate is diluted with emulsifier-containing water to the desired concentration.
# Cabbage leaves (Brassica oleracea) which are heavily infested by the green peach aphid (Myzus persicae) are treated by being sprayed with the preparation of the active compound at the desired concentration.
# (§2) After the specified period of time, the mortality in % is determined. 100% means that all the aphids have been killed; 0% means that none of the aphids have been killed.
# [2] = system: cotton aphid (Aphis gossypii); test: Aphis gossypii test (sprayed infested cotton leaves)
# Protocol: as §1
# Cotton leaves (Gossypium hirsutum) which are heavily infested by the cotton aphid (Aphis gossypii) are treated by being sprayed with the preparation of the active compound at the desired concentration.
# as §2
# [3] = system: larvae of the beet army worm (Spodoptera exigua); test: Spodoptera exigua test (sprayed cabbage leaves infested with larvae)
# Protocol: as §1
# Cabbage leaves (Brassica oleracea) are treated by being sprayed with the preparation of the active compound at the desired concentration and are infested with larvae of the beet army worm (Spodoptera exigua) as long as the leaves are still moist.
# (§3) After the specified period of time, the mortality in % is determined. 100% means that all the caterpillars have been killed; 0% means that none of the caterpillars have been killed.
# [4] = system: larvae of the fall army worm (Spodoptera frugiperda); test: Spodoptera frugiperda test (sprayed cabbage leaves infested with larvae)
# Protocol: as §1
# Cabbage leaves (Brassica oleracea) are treated by being sprayed with the preparation of the active compound at the desired concentration and are infested with larvae of the fall army worm (Spodoptera frugiperda) as long as the leaves are still moist.
# as §3
compound,measurement,setting,value
"CC1(C)C(C=C(Cl)Cl)C1C(=O)OC(C#N)c1ccc(F)c(Oc2ccccc2)c1 (stereo not drawn) [β-Cyfluthrin, beta-cyfluthrin]",Efficacy in % after 6 days,[1]; 0.8 ppm,75%
"CC1(C)[C@H](C(=O)O[C@H](C#N)c2cccc(Oc3ccccc3)c2)[C@@H]1/C=C(\Cl)C(F)(F)F [L-Cyhalothrin, lambda-cyhalothrin]",Efficacy in % after 6 days,[1]; 0.8 ppm,45%
"CC1(C)C(C=C(Cl)Cl)C1C(=O)OC(C#N)c1ccc(F)c(Oc2ccccc2)c1 (centres unmarked) [Cyfluthrin, cyfluthrin]",Efficacy in % after 1 day,[2]; 0.8 ppm,25%
"CC1(C)[C@H](C(=O)O[C@H](C#N)c2cccc(Oc3ccccc3)c2)[C@@H]1C=C(Br)Br [Deltamethrin, deltamethrin]",Efficacy in % after 4 days,[3]; 0.16 ppm,0%
same,Efficacy in % after 4 days,[4]; 0.8 ppm,70%
same,Efficacy in % after 1 day,[1]; 0.8 ppm,50%
"CC[S+]([O-])c1c(C#N)nn(-c2c(Cl)cc(C(F)(F)F)cc2Cl)c1N (centres unmarked) [Ethiprole, ethiprole]",Efficacy in % after 4 days,[3]; 0.8 ppm,0%
same,Efficacy in % after 4 days,[4]; 4 ppm,40%
same,Efficacy in % after 1 day,[1]; 4 ppm,0%
same,Efficacy in % after 6 days,[1]; 4 ppm,0%
same,Efficacy in % after 1 day,[2]; 4 ppm,30%
